Data from PMC2009665, “The bacterial mutation test. Six tests for carcinogenicity” (British Journal of Cancer, 1978).
Read-outs that look alike come from different tables or passages of the source.

Key:
[1] = tested on: Salmonella typhimurium TA 1538; conditions: cited from earlier work
[2] = tested on: Salmonella typhimurium TA 100; conditions: cited from earlier work
[3] = tested on: Salmonella typhimurium TA 100
[4] = tested on: Salmonella typhimurium TA 1538
[5] = tested on: Salmonella typhimurium TA 98
[6] = tested on: Salmonella typhimurium TA 1535; conditions: cited from earlier work
[7] = tested on: Salmonella typhimurium TA 1535
[8] = tested on: TA 1537; conditions: cited from earlier work
[9] = tested on: Salmonella typhimurium (TA 1535, TA 1538, TA 98 and TA 100)
[10] = tested on: S. typhimurium; conditions: cited from earlier work
[11] = tested on: Strain C 3076; conditions: cited from earlier work
[12] = tested on: Strain G46; conditions: cited from earlier work
[13] = tested on: Strain TA 1530; conditions: cited from earlier work
[14] = tested on: Salmonella typhimurium TA 98; conditions: cited from earlier work
[15] = tested on: strain TA 1952; conditions: after induction of enzymes with BHT; ref Green, 1974; cited from earlier work
[16] = tested on: strain TA 1950; conditions: after induction of enzymes with BHT; ref Green, 1974; cited from earlier work
[17] = tested on: Strain TA 1532; conditions: Lab 8; H induction method unknown; ref Green (1974); cited from earlier work

Row | Compound | Result on TA 100 [3] | Result on TA 1538 [4] | Result on TA 98 [5] | Result on TA 1535 [7] | Result on TA 1537 [8] | Result in the present study [9] | other results
1 | Nc1ccc2cc3ccccc3cc2c1 [2-Aminoanthracene] | + | + |  |  |  |  | Result on TA 1538 [1]: +; Result on TA 100 [2]: +
2 | Nc1ccc2ccccc2c1 [2-Naphthylamine] |  |  | - | + |  |  | Result on TA 1535 [6]: +
3 | Nc1ccc(-c2ccccc2)cc1 [4-Aminobiphenyl] |  | + | + | - | + |  | 
4 | CN(C)c1ccc(N=Nc2ccccc2)cc1 [4-Dimethylaminoazobenzene] | + | + | + | + |  | positive | Result on TA 1538 [1]: +; Response in the plate incorporation assay ([10]; plate incorporation assay, ref Commoner et al. (1974)): unable to obtain a positive response
5 | Nc1cc2c3ccccc3ccc2c2ccccc12 [6-Aminochrysene] |  |  | + | - | + |  | 
6 | Cc1c2ccccc2c(C)c2c1ccc1ccccc12 [9,10-Dimethyl-1,2-benzanthracene] |  |  |  |  |  |  | Test result (prediction of carcinogenicity from the test) [9]: +; Maximum fold increase in Salmonella revertants above the concurrent negative-control values, TA 98 [5]: -; Maximum fold increase in Salmonella revertants above the concurrent negative-control values, TA 1535 [7]: -; Concentration of the compound at which the maximum effect occurred, TA 100 [3]: 2500; Maximum fold increase in Salmonella revertants above the concurrent negative-control values, TA 100 [3]: 5 fold; Concentration of the compound at which the maximum effect occurred, TA 1538 [4]: 2500; Maximum fold increase in Salmonella revertants above the concurrent negative-control values, TA 1538 [4]: 4 fold
7 | O=C1CCO1 [/3-Propiolactone] | + | + | - |  |  |  | Result on other strains: C 3076 [11]: 76+; Result on TA 100 [2]: +; Result on other strains: G46 [12]: 46+
8 | CCN(CC)N=O [Diethylnitrosamine] |  |  |  |  |  | positive | Result on subsequent testing [9]: negative
9 | CN(C)N=O [Dimethylnitrosamine] |  | - | - | - |  | negative | Result on subsequent testing [9]: positive results have, on occasions; Result on other strains: TA 1530 ([13]; Lab 4, P Phenobarbital induction and S9 mix added, L tested in liquid culture, ref Bartsch et al. (1976)): 3+
10 | CCOS(C)(=O)=O [Ethyl methanesulphonate] | + | + | + | + |  | detected in all 4 strains | Result on other strains: C 3076 [11]: 76+; Result on TA 1535 [6]: +; Result on TA 100 [2]: +; Result on other strains: G46 [12]: 46+
11 | CN(C)P(=O)(N(C)C)N(C)C [Hexamethylphosphoramide] |  | - | - |  |  |  | Result on TA 1538 [1]: -; Result on TA 98 [14]: -
12 | NN [Hydrazine] | + | - | + | + | - |  | Result on TA 1538 [1]: -; Result on TA 1535 [6]: +; Result on other strains: TA 1530 ([13]; Lab 2, W no S9 mix, ref McCann et al. (1975) and references quoted therein): 3+; Result on other strains: G46 [12]: 46+
13 | C=CCc1ccc2c(c1)OCO2 [Safrole] |  | - |  |  | - | positive | Result on other strains: TA 1530 ([13]; Lab 8, H induction method unknown, ref Green (1974)): 3+; Result in host-mediated assay, strain TA 1952 [15]: positive; Result in host-mediated assay, strain TA 1950 [16]: positive; Result on other strains: TA 1532 [17]: 2+
14 | CCOC(N)=O [Urethane] |  | - | - | - | - |  | Result on TA 1535 [6]: -; Result on TA 98 [14]: -
15 | C=CCl [Vinyl chloride] |  |  |  |  |  |  | Result dissolved in DMSO [10]: negative; Result when tested as a gas [10]: positive
